Data taken from PubChem BioAssay AID1745844 (Carcinogenic Potency Database (CPDB), 2022).
Active and inactive are the calls of the source. No rule for the calls is given here.

Test system: rodent lifetime carcinogenesis bioassay, tumor incidence TD50
Test: carcinogenic potency in animals, long-term in vivo studies, CPDB compilation (AID 1745844)

CBr
inactive: carcinogen call (mouse, strain B6C3F1, females, inhaled, site: any site (literature study), lesion: several types, types named in the paper, dosed 75 weeks, study length 104 weeks) negative | carcinogen call (mouse, strain B6C3F1, males, inhaled, site: any site (literature study), lesion: several types, types named in the paper, dosed 75 weeks, study length 104 weeks) negative | carcinogen call (mouse, strain Crj:BDF1, females, inhaled, site: liver, lesion: hepatocellular adenoma, dosed 104 weeks, study length 105 weeks) negative | TD50 (mouse, strain Crj:BDF1, females, inhaled, site: liver, lesion: hepatocellular carcinoma, dosed 104 weeks, study length 105 weeks) 23900 mg/kg/day | TD50 (mouse, strain Crj:BDF1, females, inhaled, site: lung, lesion: alveolar/bronchiolar adenoma, dosed 104 weeks, study length 105 weeks) 6420 mg/kg/day | carcinogen call (mouse, strain Crj:BDF1, females, inhaled, site: lung, lesion: alveolar/bronchiolar carcinoma, dosed 104 weeks, study length 105 weeks) negative | TD50 (mouse, strain Crj:BDF1, females, inhaled, site: lymph node, lesion: malignant lymphoma, dosed 104 weeks, study length 105 weeks) 845 mg/kg/day | carcinogen call (mouse, strain Crj:BDF1, males, inhaled, site: liver, lesion: hepatocellular adenoma, dosed 104 weeks, study length 105 weeks) negative | carcinogen call (mouse, strain Crj:BDF1, males, inhaled, site: liver, lesion: hepatocellular carcinoma, dosed 104 weeks, study length 105 weeks) negative | carcinogen call (mouse, strain Crj:BDF1, males, inhaled, site: lung, lesion: alveolar/bronchiolar adenoma, dosed 104 weeks, study length 105 weeks) negative | carcinogen call (mouse, strain Crj:BDF1, males, inhaled, site: lung, lesion: alveolar/bronchiolar carcinoma, dosed 104 weeks, study length 105 weeks) negative | TD50 (rat, strain F344/DuCrj, females, inhaled, site: adrenal gland, lesion: pheochromocytoma, dosed 104 weeks, study length 105 weeks) 805 mg/kg/day | carcinogen call (rat, strain F344/DuCrj, females, inhaled, site: liver, lesion: hepatocellular adenoma, dosed 104 weeks, study length 105 weeks) negative | carcinogen call (rat, strain F344/DuCrj, females, inhaled, site: liver, lesion: hepatocellular carcinoma, dosed 104 weeks, study length 105 weeks) negative | carcinogen call (rat, strain F344/DuCrj, males, inhaled, site: liver, lesion: hepatocellular adenoma, dosed 104 weeks, study length 105 weeks) negative | carcinogen call (rat, strain F344/DuCrj, males, inhaled, site: liver, lesion: hepatocellular carcinoma, dosed 104 weeks, study length 105 weeks) negative | TD50 (rat, strain F344/DuCrj, males, inhaled, site: peritoneum, lesion: mesothelioma, malignant, dosed 104 weeks, study length 105 weeks) 40.8 mg/kg/day | TD50 (rat, strain F344/DuCrj, males, inhaled, site: pituitary gland, lesion: adenoma, dosed 104 weeks, study length 105 weeks) 31.8 mg/kg/day | carcinogen call (rat, strain Wistar-random, females, inhaled, site: any site (literature study), lesion: malignant tumor, dosed 129 weeks, study length 129 weeks) negative | carcinogen call (rat, strain Wistar-random, females, inhaled, site: any site (literature study), lesion: one or several types, types not named, dosed 129 weeks, study length 129 weeks) negative | carcinogen call (rat, strain Wistar-random, females, inhaled, site: liver, lesion: cholangiocarcinoma, dosed 129 weeks, study length 129 weeks) negative | TD50 (rat, strain Wistar-random, females, inhaled, site: liver, lesion: neoplastic nodule, dosed 129 weeks, study length 129 weeks) 2240 mg/kg/day | carcinogen call (rat, strain Wistar-random, females, inhaled, site: nasal cavity, olfactory epithelium, lesion: one or several types, types not named, dosed 129 weeks, study length 129 weeks) negative | carcinogen call (rat, strain Wistar-random, females, inhaled, site: nasal cavity, respiratory epithelium, lesion: one or several types, types not named, dosed 129 weeks, study length 129 weeks) negative | carcinogen call (rat, strain Wistar-random, males, inhaled, site: any site (literature study), lesion: malignant tumor, dosed 128 weeks, study length 128 weeks) negative | carcinogen call (rat, strain Wistar-random, males, inhaled, site: any site (literature study), lesion: one or several types, types not named, dosed 128 weeks, study length 128 weeks) negative | carcinogen call (rat, strain Wistar-random, males, inhaled, site: liver, lesion: cholangiocarcinoma, dosed 128 weeks, study length 128 weeks) negative | carcinogen call (rat, strain Wistar-random, males, inhaled, site: liver, lesion: hepatocellular carcinoma, dosed 128 weeks, study length 128 weeks) negative | carcinogen call (rat, strain Wistar-random, males, inhaled, site: liver, lesion: neoplastic nodule, dosed 128 weeks, study length 128 weeks) negative | carcinogen call (rat, strain Wistar-random, males, inhaled, site: nasal cavity, olfactory epithelium, lesion: one or several types, types not named, dosed 128 weeks, study length 128 weeks) negative | carcinogen call (rat, strain Wistar-random, males, inhaled, site: nasal cavity, respiratory epithelium, lesion: fibrosarcoma, dosed 128 weeks, study length 128 weeks) negative | carcinogen call (rat, strain Wistar-random, males, inhaled, site: nasal cavity, respiratory epithelium, lesion: osteosarcoma, dosed 128 weeks, study length 128 weeks) negative | carcinogen call (rat, strain Wistar-random, males, inhaled, site: nasal cavity, respiratory epithelium, lesion: squamous-cell carcinoma, dosed 128 weeks, study length 128 weeks) negative | carcinogen call (rat, strain Wistar-random, males, inhaled, site: pituitary gland, lesion: hemorrhagic tumor, dosed 128 weeks, study length 128 weeks) negative

O=c1cc(CO)occ1O
active: TD50 (mouse, strain B6C3F1, females, in feed, site: thyroid gland, lesion: follicular-cell adenoma, dosed 84 weeks, study length 88 weeks) 2610 mg/kg/day | TD50 (mouse, strain B6C3F1, males, in feed, site: thyroid gland, lesion: follicular-cell adenoma, dosed 52 weeks, study length 52 weeks) 323 mg/kg/day | TD50 (mouse, strain B6C3F1, males, in feed, site: thyroid gland, lesion: follicular-cell adenoma, dosed 84 weeks, study length 88 weeks) 927 mg/kg/day
20900 mg/kg/day: TD50 (mouse, strain B6C3F1, females, in feed, site: liver, lesion: hepatocellular adenoma, dosed 84 weeks, study length 88 weeks)
19700 mg/kg/day: TD50 (mouse, strain B6C3F1, males, in feed, site: liver, lesion: hepatocellular adenoma, dosed 84 weeks, study length 88 weeks)

CCCCCCCCCCCCCCCC(=O)CC(=O)CCCCCCCCCCCCCCC
inactive: carcinogen call (rat, strain F344/DuCrj, females, in feed, site: colon, lesion: one or several types, types not named, dosed 54 weeks, study length 54 weeks) negative | carcinogen call (rat, strain F344/DuCrj, females, in feed, site: mammary gland, lesion: one or several types, types not named, dosed 54 weeks, study length 54 weeks) negative

CCS(=O)(=O)c1ccc(S(N)(=O)=O)c2ccccc12
active: TD50 (mouse, strain A x IF, females, in feed, site: urinary bladder, lesion: carcinoma, dosed 100 weeks, study length 100 weeks) 34.2 mg/kg/day | TD50 (mouse, strain IF x C57, females, in feed, site: urinary bladder, lesion: carcinoma, dosed 92 weeks, study length 92 weeks) 15.3 mg/kg/day
53.4 mg/kg/day: TD50 (mouse, strain A x IF, females, in feed, site: lung, lesion: adenoma, dosed 100 weeks, study length 100 weeks)

O=[N+]([O-])c1ccc(-c2cnc3ccccn23)o1
959 mg/kg/day: TD50 (rat, strain Wistar, males, in feed, site: liver, lesion: hepatoma, dosed 40 weeks, study length 83 weeks)
inactive: carcinogen call (mouse, strain CTM, females, in feed, site: liver, lesion: hepatoma, dosed 40 weeks, study length 79 weeks) negative | carcinogen call (mouse, strain CTM, females, in feed, site: lung, lesion: one or several types, types not named, dosed 40 weeks, study length 79 weeks) negative | carcinogen call (mouse, strain CTM, males, in feed, site: liver, lesion: hepatoma, dosed 40 weeks, study length 73 weeks) negative | TD50 (mouse, strain CTM, males, in feed, site: lung, lesion: one or several types, types not named, dosed 40 weeks, study length 73 weeks) 763 mg/kg/day
781 mg/kg/day: TD50 (mouse, strain CTM, females, in feed, site: thyroid gland, lesion: lymphosarcoma, dosed 40 weeks, study length 79 weeks)
644 mg/kg/day: TD50 (rat, strain Wistar, females, in feed, site: liver, lesion: hepatoma, dosed 40 weeks, study length 89 weeks)
active: carcinogen call (mouse, strain CTM, females, in feed, site: any site (literature study), lesion: several types, types named in the paper, dosed 40 weeks, study length 79 weeks) positive | TD50 (mouse, strain CTM, females, in feed, site: several sites, sites named in the paper, lesion: carcinoma, dosed 40 weeks, study length 79 weeks) 21.6 mg/kg/day | TD50 (mouse, strain CTM, females, in feed, site: several sites, sites named in the paper, lesion: papilloma, dosed 40 weeks, study length 79 weeks) 117 mg/kg/day | TD50 (mouse, strain CTM, males, in feed, site: any site (literature study), lesion: several types, types named in the paper, dosed 40 weeks, study length 73 weeks) 57.1 mg/kg/day | TD50 (mouse, strain CTM, males, in feed, site: several sites, sites named in the paper, lesion: carcinoma, dosed 40 weeks, study length 73 weeks) 40.1 mg/kg/day | TD50 (mouse, strain CTM, males, in feed, site: several sites, sites named in the paper, lesion: papilloma, dosed 40 weeks, study length 73 weeks) 65.8 mg/kg/day | TD50 (rat, strain Wistar, females, in feed, site: any site (literature study), lesion: several types, types named in the paper, dosed 40 weeks, study length 89 weeks) 15.8 mg/kg/day | TD50 (rat, strain Wistar, females, in feed, site: kidney, lesion: one or several types, types not named, dosed 40 weeks, study length 89 weeks) 116 mg/kg/day | TD50 (rat, strain Wistar, females, in feed, site: mammary tissue, wider than the gland, lesion: one or several types, types not named, dosed 40 weeks, study length 89 weeks) 33.3 mg/kg/day | TD50 (rat, strain Wistar, females, in feed, site: several sites, sites named in the paper, lesion: carcinoma, dosed 40 weeks, study length 89 weeks) 443 mg/kg/day | TD50 (rat, strain Wistar, females, in feed, site: several sites, sites named in the paper, lesion: papilloma, dosed 40 weeks, study length 89 weeks) 27.5 mg/kg/day | TD50 (rat, strain Wistar, males, in feed, site: any site (literature study), lesion: several types, types named in the paper, dosed 40 weeks, study length 83 weeks) 11.9 mg/kg/day | TD50 (rat, strain Wistar, males, in feed, site: kidney, lesion: one or several types, types not named, dosed 40 weeks, study length 83 weeks) 21.4 mg/kg/day | TD50 (rat, strain Wistar, males, in feed, site: several sites, sites named in the paper, lesion: carcinoma, dosed 40 weeks, study length 83 weeks) 104 mg/kg/day | TD50 (rat, strain Wistar, males, in feed, site: several sites, sites named in the paper, lesion: papilloma, dosed 40 weeks, study length 83 weeks) 43.7 mg/kg/day
